In a melting point compilation (Tetko et al.):

| Structure (SMILES) | melting point [°C] |
| --- | --- |
| COC(=O)c1cc(Cl)cc(Cl)c1 | 59 |
| Cc1cc(C)n2nc(N)c(/N=N/c3ccccc3C)c2n1 | 256 |
| Cc1ccc(C(N)=NO)cc1F | 105 to 107 |
| ClC[Si]12OCCN(CCO1)CCO2 | 221 |
| C1COCCOCCOCCOCCOCCN1 | 48 |
| CC1CCC2C(C)C3C(CC4C5CC=C6CC(O)CCC6(C)C5CCC43C)N2C1 (centres undefined) | 218 |
| COc1ccc(C=Cc2ccc(OC)cc2)cc1 | 214 |
| COc1ccc(OCc2ccccc2)cc1 | 71 to 73 |
| Nc1c(Cl)cc(Br)cc1Cl | 87 |
| CON(C)C(=O)Nc1ccc(Br)c(Cl)c1 | 96 |
| COC(=O)c1c(C(=O)OC)c(-c2ccccc2)c2c(Cl)nc(Cl)cc2c1Sc1ccccc1 | 178 |
| Cc1cccc(Cn2nc(C(C)(C)C)cc2-c2nnc(S)o2)c1 | 129 to 131 |
| O=[N+]([O-])c1cccc(-c2noc(CCl)n2)c1 | 60 to 62 |
| COC(=O)Nc1nc2cc(C(=O)c3ccc(F)cc3)ccc2[nH]1 | 260 |
| BrCc1ccc(-c2ccsc2)cc1 | 107 to 109 |
| Cc1cccc(O)c1C(=O)O | 173 |
| C#CCO | -51.8 |
| O=c1cccc2n1CC1CNCC2C1 (centres undefined) | 152 |
| COC(=O)Oc1ccccc1C(=O)O | 134 |
| c1ccc2cc3c(cc2c1)nnc1ncnn13 | 198 to 202 |
| Cc1ccc(C(=O)C(C)CN2CCCCC2)cc1 (centres undefined) | 176 |
| O=CC(C=O)c1ccc(Cl)cc1[N+](=O)[O-] | 137 to 143 |
| O=Cc1ccncc1 | -4 |
| O=Cc1ccc(C#Cc2ccccc2)s1 | 91 |
| CCC1(CC)C(=O)NC(=O)NC1=O | 190 |
| COc1cc(/C=C/c2ccc([N+](=O)[O-])cc2[N+](=O)[O-])ccc1O | 191 |
| COc1ccc(Br)cc1C=O | 116 |

| Structure (SMILES) | melting point [°C] |
| --- | --- |
| CC(=O)c1cc(C)c(Br)cc1O | 88 |
| Nc1nc(O)cc(C(F)(F)F)n1 | 290 |
| CCOC(=O)/C(C(N)=S)=C1/NN=C(c2ccccc2O)O1 | 128 |
| CCOC(=O)Nc1ccccc1 | 47 to 51 |
| Cc1ccc2cccc(C)c2c1 | -13.9 |
| N#CCc1cc(C(F)(F)F)ccc1Cl | 32 |
| Nc1cc(N)cc(C(=O)O)c1 | 235 |
| O=Cc1csc2ccccc12 | 56 to 58 |
| COC(=O)C(C)Cl (centres undefined) | -10 |
| Nc1cccc(CN2CCOCC2)c1 | 73 to 75 |
| COc1ccc(C=C2N=C(c3ccccc3)OC2=O)cc1OC | 132 to 133 |
| FC(F)(F)C1(F)C(F)(F)C(F)(F)C(F)(F)C2(F)C(F)(F)C(F)(F)C(F)(F)C(F)(F)C12F (centres undefined) | -70 |
| C=CCCC(=C)C | -129 |
| Clc1cc(Cl)c2c(c1Cl)Oc1c(Cl)cc(Cl)c(Cl)c1O2 | 238 |
| N=C(NCCCC(N)C(=O)O)N[N+](=O)[O-] (centres undefined) | 257 |
| C1=CCNCC1 | -48 |
| COC(=O)c1cccc2c1-c1ccccc1C2=O | 135 to 136 |
| O=C(Cc1ccccc1)CC(c1ccco1)N1CCCCC1 (centres undefined) | 130 |
| O=Cc1cccc2cc[nH]c12 | 88 |
| COc1ccc(CCO)cc1OC | 46 |
| CCOC(=O)c1ccc(OC(C)=O)cc1 | 34 |
| O=S(=O)(Cl)c1ccc2c(c1)OCCO2 | 66 to 68 |
| Cn1c2ccccc2n2c(=O)c3cccnc3c(C#N)c12 | 292 to 293 |
| FC(F)(F)C(F)(F)C(F)(F)C(F)(F)C(F)(F)C(F)(F)C(F)(F)C(F)(F)Br | < 25 |
| CC1=C(O)C(=O)C(C(C)C)CC1 (centres undefined) | 83 |
| O=S(=O)(Cl)c1cccc(Br)c1 | 32 |
| CC(=O)Nc1cc(NS(=O)(=O)C(F)(F)F)c(C)cc1C | 184 |
